The test system of this experiment is Human primary T cells. As to the kind of experiment: IL-2 ELISA, human primary T cell, anti-CD3+CD28+ (whole cell assay). Type of experiment: cell-based. The settings on record: Homo sapiens, T-cell, 24 h, human primary T cells stimulated with anti-CD3 + anti-CD28, 24 hours. In short, it runs like this:
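PBMC-derived T cells, pre-expanded on αCD3/αCD28 with IL-2 and then washed free of IL-2, were preincubated with compound for 1 hr at 37° C (100,000 cells/well). They were then stimulated on 1 μg/ml αCD3 plus 5 μg/ml αCD28 for 24 h, and supernatant IL-2 was measured by ELISA. The counter-assay used 0.5 ng/ml PMA plus 0.1 μM ionomycin instead.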
Background: ELISA stands for enzyme-linked immunosorbent assay.
Consider `CC(C)Oc1ccc(Nc2ncc(F)c(NC3CC(C)(C)N(C)C(C)(C)C3)n2)cc1N(C)C(C)C` [III-66, 5-fluoro-N2-(4-isopropoxy-3-(isopropyl(methyl)amino)phenyl)-N4-(1,2,2,6,6-pentamethylpiperidin-4-yl)pyrimidine-2,4-diamine], for which the IC50 – broadly, the midpoint of a concentration-inhibition curve – is > 1000 nM.

As to `CC1(C)CC(Nc2nc(Nc3cc(F)c(OC4CCN(CCOCc5ccccc5)CC4)c(F)c3)ncc2F)CC(C)(C)N1` [III-55, N2-(4-(1-(2-(benzyloxy)ethyl)piperidin-4-yloxy)-3,5-difluorophenyl)-5-fluoro-N4-(2,2,6,6-tetramethylpiperidin-4-yl)pyrimidine-2,4-diamine], the IC50 lay in the range of 500 to 1000 nM.

As for `CC(=O)N1CCCC(Oc2c(F)cc(Nc3ncc(F)c(NC4CC(C)(C)N(C)C(C)(C)C4)n3)cc2F)CC1` (centres unmarked) [III-81, 1-(4-(2,6-difluoro-4-(5-fluoro-4-(1,2,2,6,6-pentamethylpiperidin-4-ylamino)pyrimidin-2-ylamino)phenoxy)azepan-1-yl)ethanone], the IC50 was in the range of 500 to 1000 nM.

`CCc1nnnn1-c1cc(Nc2ncc(F)c(NC3CC(C)(C)NC(C)(C)C3)n2)ccc1OC(F)F` [III-67, N2-(4-(difluoromethoxy)-3-(5-ethyl-1H-tetrazol-1-yl)phenyl)-5-fluoro-N4-(2,2,6,6-tetramethylpiperidin-4-yl)pyrimidine-2,4-diamine]: the IC50 lay in the range of 250 to 500 nM.

With `CC(C)N1CC[C@H](Oc2ccc(Nc3ncc(F)c(NC4CC(C)(C)NC(C)(C)C4)n3)cc2OC(F)F)C1` [Compound I-148, N2-(4-((S)-1-isopropylpyrrolidin-3-yloxy)-3-(difluoromethoxy)phenyl)-5-fluoro-N4-(2,2,6,6-tetramethylpiperidin-4-yl)pyrimidine-2,4-diamine], the 50% inhibitory concentration (IC50) fell in the range of 250 to 500 nM.

Regarding `Cc1nnnn1-c1cc(Nc2ncc(F)c(NC3CC(C)(C)N(C)C(C)(C)C3)n2)cnc1OC(C)C` [Compound I-113, 5-fluoro-N2-(6-isopropoxy-5-(5-methyl-1H-tetrazol-1-yl)pyridin-3-yl)-N4-(1,2,2,6,6-pentamethylpiperidin-4-yl)pyrimidine-2,4-diamine], the IC50 is < 250 nM.

On to `CCNC(=O)N1CCCC(Oc2c(F)cc(Nc3ncc(F)c(NC4CC(C)(C)N(C)C(C)(C)C4)n3)cc2F)CC1` (centres unmarked) [III-83, 4-(2,6-difluoro-4-(5-fluoro-4-(1,2,2,6,6-pentamethylpiperidin-4-ylamino)pyrimidin-2-ylamino)phenoxy)-N-ethylazepane-1-carboxamide], for which the IC50 was 500 to 1000 nM.

Turning to `CN1C(C)(C)CC(Nc2nc(Nc3ccc(OCCCn4cccc4)c(OC(F)F)c3)ncc2F)CC1(C)C` [Compound I-41, N2-(4-(3-(1H-pyrrol-1-yl)propoxy)-3-(difluoromethoxy)phenyl)-5-fluoro-N4-(1,2,2,6,6-pentamethylpiperidin-4-yl)pyrimidine-2,4-diamine], the IC50 is < 250 nM.

Consider `CN1C(C)(C)CC(Nc2nc(Nc3ccc(OC4CCOCC4)c(F)c3)ncc2F)CC1(C)C` [III-24, 5-fluoro-N2-(3-fluoro-4-(tetrahydro-2H-pyran-4-yloxy)phenyl)-N4-(1,2,2,6,6-pentamethylpiperidin-4-yl)pyrimidine-2,4-diamine], for which the IC50 is 500 to 1000 nM.

On to `CC(=O)N1CCC(Oc2c(F)cc(Nc3ncc(F)c(NC4CC(C)(C)NC(C)(C)C4)n3)cc2F)CC1` [III-92, 1-(4-(2,6-difluoro-4-(5-fluoro-4-(2,2,6,6-tetramethylpiperidin-4-ylamino)pyrimidin-2-ylamino)phenoxy)piperidin-1-yl)ethanone], for which the IC50 was > 1000 nM.

On to `Cc1cc(Nc2ncc(F)c(NC3CC(C)(C)N(C)C(C)(C)C3)n2)cc(-c2nnnn2C)c1` [III-133, 5-fluoro-N2-(3-methyl-5-(1-methyl-1H-tetrazol-5-yl)phenyl)-N4-(1,2,2,6,6-pentamethylpiperidin-4-yl)pyrimidine-2,4-diamine], for which the IC50 is < 250 nM.

Source of the values: patent US9149475B2, “Protein kinase C inhibitors and uses thereof” (Rigel Pharmaceuticals, Inc., priority 2009, dated 2015).
